The nature of the first data set: method code SF-HPLC, from PMID: 1293941.
Conditions: not given
In turn, `CCCCCCCCOC(=O)c1ccc(N)cc1` yielded a logP of 5.02.
For `CCCCCOC(=O)c1ccc(N)cc1`, the logP came to 3.48.
`CCCCCCOC(=O)c1ccc(N)cc1` displayed a logP of 3.95.
On the same count and under the same terms, the result for `CCCOC(=O)c1ccc(N)cc1` reads 2.43.
In the case of `CCCCCCCOC(=O)c1ccc(N)cc1`, the logP is 4.5.

Experiment in the next data set: not given
Conditions: not given
`Cc1cc(Cc2c(Cl)cccc2Cl)c(Cl)cc1Cl` gave a log partition coefficient (logP) of 6.53.
Molecule `Cc1cc(Cl)c(Cl)cc1Cc1c(Cl)cccc1Cl` displayed a logP of 6.03.
The molecule `Cc1c(Cl)ccc(Cc2c(Cl)cccc2Cl)c1Cl` registered a logP of 6.58.
As to `Cc1cc(Cc2ccc(Cl)cc2Cl)c(Cl)cc1Cl`, the logP was 6.77.
As to `Cc1c(Cl)ccc(Cc2ccc(Cl)cc2Cl)c1Cl`, the logP is 6.85.

A further data set in a line: method code SF-HPLC, from PMID: 2780588.
Conditions: not given
In turn, `CCCCCNC(=O)Cc1ccc(O)c(OC)c1` displayed a logP of 1.67.
The same measure, in the same setting: next, `CCCCCCCCC(=O)NCc1ccc(O)c(OC)c1`: 2.96.
As for `CCCCCCCCCCCNC(=O)Cc1ccc(O)c(OC)c1`, the logP turned out to be 3.74.
`CCCCCCCCC(=O)NCc1cccc(OC)c1` came in with a logP of 3.31.
In the case of `COc1cc(CNC(=O)CCCC/C=C/C(C)C)ccc1O`, the logP is 3.04.

The nature of another data set: method code SF-AS, from Jha, T.; Debnath, A.; Mazumdar, A.; Sengupta, C.; De, A. (1986). Hansch analysis of antineoplastic agents, 5-N-substituted-2-p-substituted benzenesulfonyl-L-glutamines. Ind. J. Chem., Sect. B, ….
Conditions: not given
Take `CCCCCNC(=O)CCC(NS(=O)(=O)c1ccccc1)C(=O)O` (stereo not given): the logP was -0.16.
`Cc1ccc(S(=O)(=O)NC(CCC(=O)NC2CCCCC2)C(=O)O)cc1` (stereo not given): the logP turned out to be 0.32.
With `CCCNC(=O)CCC(NS(=O)(=O)c1ccccc1)C(=O)O` (stereo not given), the lipophilicity (logP) is -0.08.
The molecule `CCNC(=O)CCC(NS(=O)(=O)c1ccccc1)C(=O)O` (stereo not given) had a logP of 0.38.
Molecule `CCCCCCNC(=O)CCC(NS(=O)(=O)c1ccc(C)cc1)C(=O)O` (stereo not given) returned a log partition coefficient (logP) of 0.92.

Experiment in another data set: not given
Conditions: not given
This is another data set of the same source.
The molecule `O=C(O)CCCCOc1cccc2ccccc12` displayed a lipophilicity (logP) of 4.
The molecule `OCCOc1cccc2ccccc12` displayed a log partition coefficient (logP) of 2.5.
`COC(=O)c1ccccc1S(=O)(=O)NC(=O)Nc1nc(C)cc(C)n1` returned a lipophilicity (logP) of 1.3.
The same measure, in the same setting: the result for `O=C(O)CCCCCOc1cccc2ccccc12` reads 4.5; that for `O=C(O)CCCOc1cccc2ccccc12`, 3.5.

Experiment in a further data set: not given
Conditions: not given
This is another data set of the same source.
In the case of `c1ccc2c(c1)cnn2C12CC3CC(CC(C3)C1)C2`, the logP turned out to be 4.33.
The molecule `c1cnn(C23CC4CC(CC(C4)C2)C3)c1` came in with a logP of 3.05.
Regarding `c1ccc2c(c1)ncn2C12CC3CC(CC(C3)C1)C2`, the logP amounted to 3.64.
Take `c1cn(C23CC4CC(CC(C4)C2)C3)cn1`: the logP worked out at 2.9.
`c1ccc2nn(C34CC5CC(CC(C5)C3)C4)nc2c1` showed a logP of 4.3.

A further data set in a line: method code SF, from DOI: 10.1248/yakushi1947.96.10_1169, PMID: 1033993. The conditions noted are these: pH 0.7.
In turn, `C=CCC1(CC=C)C(=O)NC(=O)N(C)C1=O` returned a logD of 1.55.
Consider `CCCC1(CC)C(=O)NC(=O)N(C)C1=O` (stereo not given), for which the logD worked out at 1.65.
Turning to `CCC1(CC)C(=O)NC(=O)N(C)C1=O`, the logD is 1.15.
On the same count and under the same terms, next, `CCCC(C)C1(CC)C(=O)NC(=O)N(C)C1=O` (stereo not given): 2.45.
In turn, `CCC1(CCC(C)C)C(=O)NC(=O)N(C)C1=O` (stereo not given) displayed a logD of 2.45.

Another data set is described as follows: from Rich, R. (1990). Partition coefficients of quinones and their relation to biochemical reactivity. In Lenaz, G. (Ed.), Highlights in Ubiquinone Research: Proceedings of the International Symposium, ….
Conditions: not given
For the molecule `Cc1cc(O)ccc1O`, the lipophilicity (logP) is 0.91.
On the same count and under the same terms, next, `CC1=CC(=O)C=C(C)C1=O`: 0.95; `Cc1c(C)c(O)c(C)c(C)c1O`: 1.8; `Cc1c(O)ccc(O)c1C`: 1.36.
Consider `Cc1cc(O)cc(C)c1O`, for which the logP was 1.

A short description of the next data set: method code SF-AS, from DOI: 10.1021/jm00253a014, PMID: 4151967. To be noted: pH 7.4.
`CCn1c(C)c(COC(=O)NCCO)c2c1C(=O)C(C)=C(OC)C2=O`: the logD worked out at 1.64.
`CCn1c(C)c(COC(N)=O)c2c1C(=O)C(C)=C(OC)C2=O` came in with a logD of 1.81.
Take `COC1=C(C)C(=O)c2c(c(COC(N)=O)c3n2CCC3)C1=O`: the logD is 1.71. The logD values of the last two molecules are within 0.2 log units of each other.
On the same count and under the same terms, next, `CC1=C(N)C(=O)c2c(COC(N)=O)c3n(c2C1=O)CCC3O` (stereo not given): 0.64.
Molecule `COC1=C(C)C(=O)c2c(c(COC(N)=O)c3n2CCC3OC(C)=O)C1=O` (stereo not given) gave a logD of 1.54.

Experiment in the next data set: not given
Conditions: not given
The source holds these as a separate data set.
In the case of `COC(=O)CS(=O)c1ccc([N+](=O)[O-])cc1` (stereo not given), the log partition coefficient (logP) was 0.98.
The same measure, in the same setting: the result for `COC(=O)CS(=O)c1ccc(Cl)cc1[N+](=O)[O-]` (stereo not given) reads 1.69; that for `COC(=O)CSc1ccc([N+](=O)[O-])cc1`, 2.29.
In the case of `COC(=O)CS(=O)(=O)c1ccc([N+](=O)[O-])cc1`, the logP came out at 0.92.
Regarding `COC(=O)CS(=O)c1ccccc1[N+](=O)[O-]` (stereo not given), the logP amounted to 0.98.

Experiment in the next data set: not given
Conditions: not given
This is another data set of the same source.
For the molecule `O=C(Oc1ccc(-c2ccccc2)cc1)C1OC(O)C(O)C(O)C1O` (stereo not given), the log partition coefficient (logP) was determined as 1.79.
`Cc1ccc(OC(=O)C2OC(O)C(O)C(O)C2O)cc1` (stereo not given) gave a logP of 0.37.
The same measure, in the same setting: the result for `O=C(Oc1ccc2cc(Br)ccc2c1)C1OC(O)C(O)C(O)C1O` (stereo not given) reads 1.97; that for `O=C(Oc1ccccc1)C1OC(O)C(O)C(O)C1O` (stereo not given), -0.69; that for `COc1ccc(OC(=O)C2OC(O)C(O)C(O)C2O)cc1` (stereo not given), -0.01.

A further data set can be described thus: method code SF-AS, from DOI: 10.1002/em.2850200210, PMID: 1505530.
Conditions: not given
In turn, `O=[N+]([O-])c1ccc2ccccc2c1` returned a logP of 3.24.
Still for that read-out and setting: the result for `O=[N+]([O-])c1ccc2c(c1)Cc1cc([N+](=O)[O-])ccc1-2` reads 3.35; that for `O=[N+]([O-])c1cccc2cccnc12`, 1.44.
In the case of `O=C1c2cc([N+](=O)[O-])ccc2-c2ccc([N+](=O)[O-])cc21`, the logP was determined as 2.84.
The same measure, in the same setting: the result for `O=[N+]([O-])c1cccc2c([N+](=O)[O-])cccc12` reads 2.58.

Another data set is described as follows: method code SF-AS, from DOI: 10.1128/aac.27.1.84, PMID: 2580479.
Conditions: not given
In turn, `CO[C@@]1(NC(=O)Cc2cccs2)C(=O)N2C(C(=O)O)=C(COC(N)=O)CS[C@@H]21` gave a logP of -0.02.
With `CCN1CCN(C(=O)N[C@@H](C(=O)N[C@@H]2C(=O)N3C(C(=O)O)=C(CSc4nnnn4C)CS[C@H]23)c2ccc(O)cc2)C(=O)C1=O`, the logP is -0.74.
For `CC(=O)OCC1=C(C(=O)O)N2C(=O)[C@@H](NC(=O)CC#N)[C@H]2SC1`, the logP was -0.45.
`CCN1CCN(C(=O)N[C@@H](C(=O)N[C@@H]2C(=O)N3[C@@H]2SC(C)(C)[C@@H]3C(=O)O)c2ccccc2)C(=O)C1=O` returned a logP of 0.5.

Still in this data set, the particulars now being: pH 2.0.
In the case of `Cn1nnnc1SCC1=C(C(=O)O)N2C(=O)[C@@H](NC(=O)CSCC#N)[C@H]2SC1`, the logD was -0.62.

Experiment in another data set: not given
Conditions: not given
This is another data set of the same source.
With `Fc1cccc(C2CNCCO2)c1` (stereo not given), the log partition coefficient (logP) is 1.42.
Same read-out and setting: the result for `c1ccc(C2CNCCO2)cc1` (stereo not given) reads 1.11; that for `FC(F)(F)c1cccc(C2CNCCO2)c1` (stereo not given), 2.18.
As for `CC(C)N1CCOC(c2ccccc2)C1` (stereo not given), the logP stood at 2.3.
On the same count and under the same terms, the result for `c1ccc(CN2CCOCC2)cc1` reads 1.58.

The nature of the next data set: method code SF-AS, from DOI: 10.1002/jps.2600630206, PMID: 4204981.
Conditions: not given
`O=C(O)C1CCc2cc(Cl)ccc2O1` (stereo not given) registered a logP of 2.4.
Consider `O=C(O)C1Cc2cc(Cl)ccc2O1` (stereo not given), for which the logP came to 2.11.
Turning to `O=C1CC(C(=O)O)Oc2ccc(Cl)cc21` (stereo not given), the lipophilicity (logP) worked out at 1.77.
The same measure, in the same setting: next, `CC(Oc1ccc(Cl)cc1)C(=O)O` (stereo not given): 2.31; `O=C(O)C1COc2ccccc2O1` (stereo not given): 1.4.

Another data set can be described thus: method code SF-AS, from DOI: 10.1016/j.ejps.2010.09.003, PMID: 20854904. The conditions noted are these: pH 10.0.
`O=C(CCN1CCCC1)c1ccccc1` came in with a logD of 1.91.
`O=C(CCN1CCCCC1)c1ccccc1` returned a log distribution coefficient (logD) of 2.4.
`CN(C)CCC(=O)c1ccccc1` had a log distribution coefficient (logD) of 1.77.
In the case of `CCN(CC)CCC(=O)c1ccccc1`, the log distribution coefficient (logD) amounted to 1.59.

Staying with this data set, now noted: pH 11.0.
Molecule `O=C(CCNC1CCCCC1)c1ccccc1` registered a logD of 2.57.

A further data set is described as follows: method code SF-AS, from DOI: 10.1016/j.bioorg.2006.09.003, PMID: 17078995. The conditions noted are these: pH 7.4.
As for `CCCC(=O)OCCc1ccc(O)c(O)c1`, the logD was 1.77.
In the case of `CC(=O)OCCc1ccc(O)c(O)c1`, the logD was determined as 0.95.
Still for that read-out and setting: next, `Cc1cc(CCO)ccc1O`: 0.5; `CCC(=O)OCCc1ccc(O)c(O)c1`: 1.2.
The same measure, in the same setting: next, `CCCC(=O)OCCc1ccc(O)c(OC)c1`: 2.54.

As a reminder, the logP is the decadic logarithm of the partition coefficient of the neutral form, usually between octanol and water. Lower therefore signals lower lipophilicity. Broadly, the logD is the decadic logarithm of the distribution of all forms, ionised or not, between an organic phase and buffer at a given pH. Low readings indicate lower lipophilicity, high ones higher lipophilicity.

Source of the values: the SangsterLogP compilation.
